Patent publication US20260137706A1, “METHODS OF TREATING INFLAMMATORY DISEASES” (INTERLINE THERAPEUTICS, INC., priority 2023, published 2026)
Read-outs that look alike come from different tables or passages of the source.

Experiments:
[1] = tested on: NF-κB pathway (SEAP) in THP1-Dual cells; assay: THP-1 Dual cell SEAP assay (L18-MDP stimulated); type: cell-based; settings: read-out: NF-κB THP1 IC50 bin
Procedure: THP1-Dual™ cells (InvivoGen Cat #thpd-nfis) allow simultaneous assessment of the NF-κB pathway, by monitoring the activity of secreted embryonic alkaline phosphatase (SEAP) as well as the IRF pathway, by assessing the activity of a secreted luciferase (Lucia). Cells were cultured according to manufacturers' recommendations. For the assay, cell concentration was adjusted to 7.14×10^5 cells/mL in assay media (RPMI 1640, 2 mM L-Glutamine, 25 mM HEPES, 10% fetal bovine serum (heat-inactivated for 30 min at 56° C.), Pen-Strep (100 U/mL)) and 35 µL of cell suspension (˜25,000 cells) per well were added to a flat bottom 384-well plate (white opaque). Plate was centrifuged at 300 g for 2 min, compounds were added in serial dilution series according to the plate layout (volumes ˜500 nL-0.0152 nL) and plate was incubated at 37° C. in 5% CO2 for 30 min. Using assay media, a L18-MDP stock solution, that results in a final concentration of 10 ng/mL L18-MDP in each well when adding 15 μL to each well, was prepared. 15 μL of L18-MDP stock solution was added to each well, while 15 μL of assay media was added to the negative control wells. Plates were subsequently incubated at 37° C. in 5% CO2 overnight (20-24 h).
For the SEAP assay: without disturbing the cells at the bottom of the well, 15 μL supernatant was transferred to a clear 384-well flat bottom plate and 35 μL QUANTI-Blue Solution per well was added. Following a 2 h incubation at 37° C., the optical density (OD) was measured at 620-655 nm using a microplate reader (PheraStar FS microplate reader with protocol for OD 620-655 nm).
Values of media-only wells were subtracted and % inhibition for each compound concentration relative to the DMSO/L18-MDP-treated controls was calculated. Inhibition values+/−SD were fitted by non-linear regression using Prism software (GraphPad PRISM Software) to calculate IC50 values.

[2] = target: T1, binding of His-XIAP(BIR2)-avi fusion protein to GST-RIPK2 fusion protein (RIPK2/XIAP) (Homo sapiens, UniProt O43353); assay: RIPK2-XIAP binding competition PPI assay (TR-FRET); settings: RIPK2/XIAP binding competition PPI assay; for Emax / PPI Amax bin: Amax; for Emax: read-out: PPI Amax bin; for IC50: read-out: PPI IC50 bin
T1 construct: made in house; host or cells: baculovirus infected Sf9 cells
T1 sequence (O43353 1-310 limits assumed): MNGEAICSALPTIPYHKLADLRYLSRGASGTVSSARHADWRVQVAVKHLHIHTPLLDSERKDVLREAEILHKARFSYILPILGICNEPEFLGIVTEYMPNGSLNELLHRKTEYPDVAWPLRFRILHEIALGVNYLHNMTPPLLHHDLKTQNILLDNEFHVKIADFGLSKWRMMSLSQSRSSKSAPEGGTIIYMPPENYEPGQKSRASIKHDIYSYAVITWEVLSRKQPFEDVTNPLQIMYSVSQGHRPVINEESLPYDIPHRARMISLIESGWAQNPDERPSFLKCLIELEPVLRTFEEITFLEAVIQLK
Description: The ability of selected compounds of Formula (I) to inhibit the binding of an His-XIAP(BIR2)-avi fusion protein to a GST-RIPK2 fusion protein was quantified employing the TR-FRET-based competition assay as described in the following paragraphs.
Recombinant fusion protein of N-terminal Glutathione-S-Transferase (GST) and a fragment of human RIPK2 (amino acids 1-310 of accession number 043353), expressed in baculovirus infected Sf9 cells, purified via glutathione affinity chromatography, was used as GST-RIPK2 fusion protein. Recombinant fusion protein of N-terminal 6×Histidine (His), a fragment of human XIAP (amino acids 152-231 of accession number P98170), and C-terminal avi tag, expressed in baculovirus infected Sf9 cells, purified via Nickel NTA affinity chromatography, was used as the His-XIAP(BIR2)-avi fusion protein.
For the assay, a working solution of 1 nM GST-RIPK2, 25 nM His-XIAP(BIR2)-avi, 6 nM Anti-His-XL665 […] (Revvity Catalogue No. 61HISXLB), and 0.5 nM Anti-GST-Tb (Revvity Catalogue No. 61GSTTLB) in 25 mM Tris-HCl 7.5, 0.5 mM ethylene glycol-bis(2-aminoethylether)-N,N,N′,N′-tetraacetic acid (EGTA), 10 mM magnesium chloride (MgCl2), 2.5 mM dithiothreitol (DTT), 0.01% (w/v) bovine serum albumin (BSA), 0.005% (w/v) Pluronic F-127 (Sigma), 0.5 mM sodium ortho-vanadate, 5 mM β-Glycerophosphate disodium salt hydrate (BGP) was prepared. 50 nL of a 100-fold concentrated solution of each test compound in DMSO was dispensed via acoustic dispensing into a white low volume 384-well microtiter plate (Perkin Elmer Catalogue No. 6008280). Subsequently, 5 μL of the assay working solution were added.
The resulting mixture was incubated 120 min at 23° C. Subsequently, the amount of complex formed by the GST-RIPK2, XIAP(BIR2)-avi, Anti-His-XL665, and Anti-GST-Tb was evaluated by measurement of the resonance energy transfer from the Tb-cryptate to the XL665. Therefore, the fluorescence emissions at 520 nm and 665 nm after excitation at 337 nm were measured in a TR-FRET reader, e.g. a Pherastar FS (BMG Labtechnologies, Offenburg, Germany) or an Envision (PerkinElmer). The ratio of the emissions at 665 nm and at 520 nm was taken as the measure of the amount of the complex. The data were normalized (assay reaction without inhibitor=0% activity, 50 nM of GSK583=−100% activity).
For the RIPK2/XIAP binding competition PPI assay Amax values, “A” denotes an Amax of ≥80%; “B” denotes an Amax of 80%>B≥55; “C” denotes an Amax of 55%>C>30; and “D” denotes an Amax of ≤30%.

| Compound | IC50 ([1]; Homo sapiens, THP1-Dual) [nM] | Emax [2] [%] | IC50 [2] [nM] | IC50 [1] [nM] | PPI Amax bin [2] |
| --- | --- | --- | --- | --- | --- |
| CC(F)(CO)COc1cc2ncc(-c3cc(F)c(N)nc3F)n2cc1S(=O)(=O)C(C)(C)C (single isomer, unassigned) [Example 260] | 50 to 250 | > 80 | 1 to 2.5 |  |  |
| CC(F)(CO)COc1cc2ncc(-c3cc(F)c(N)nc3F)n2cc1S(=O)(=O)C(C)(C)C (single isomer, unassigned) [Example 261] |  |  | 1 to 2.5 | 50 to 250 |  |
| CC(F)(CO)COc1cc2ncc(-c3cc(Cl)c(N)nc3F)n2cc1S(=O)(=O)C(C)(C)C (single isomer, unassigned) [Example 265] | 50 to 250 | > 80 | 1 to 2.5 |  |  |
| CC(F)(CO)COc1cc2ncc(-c3cc(Cl)c(N)nc3F)n2cc1S(=O)(=O)C(C)(C)C (single isomer, unassigned) [Example 266] |  |  | 1 to 2.5 | 50 to 250 | A (an Amax of ≥80%) |
| COc1cc2ncc(-c3cc(NS(=O)(=O)c4cnn(C)c4)c(OC)c(OC)c3)n2cc1N1CC(C)CC1=O (single isomer, unassigned) [Example 274] |  | > 80 | 2.5 to 20 | 250 to 1000 |  |
| COc1cc2ncc(-c3cc(NS(=O)(=O)c4cnn(C)c4)c(OC)c(OC)c3)n2cc1N1CC(C)CC1=O (single isomer, unassigned) [Example 275] |  |  | 1 to 2.5 | 50 to 250 | A (an Amax of ≥80%) |
| COc1cc2ncc(-c3cc(F)c(OC)c(NC(C)c4cnn(C)c4)c3)n2cc1S(=O)(=O)C(C)(C)C (single isomer, unassigned) [Example 302] |  | > 80 | < 1 | < 50 |  |
| COc1cc2ncc(-c3cc(F)c(OC)c(NC(C)c4cnn(C)c4)c3)n2cc1S(=O)(=O)C(C)(C)C (single isomer, unassigned) [Example 303] |  |  | 2.5 to 20 | 250 to 1000 | A (an Amax of ≥80%) |
| COc1cc2ncc(-c3cc(F)c(OC)c(NS(=O)(=O)c4cnn(C)c4)c3)n2cc1C(F)(F)F [Example 136, N-(3-fluoro-2-methoxy-5-(7-methoxy-6-(trifluoromethyl)imidazo[1,2-a]pyridin-3-yl)phenyl)-1-methyl-1H-pyrazole-4-sulfonamide] | 250 to 1000 | > 80 | 2.5 to 20 |  |  |
| COc1cc2ncc(-c3cc(F)c(OC)c(NS(=O)(=O)c4cn[nH]c4)c3)n2cc1C(F)(F)F [Example 137, N-(3-fluoro-2-methoxy-5-(7-methoxy-6-(trifluoromethyl)imidazo[1,2-a]pyridin-3-yl)phenyl)-1H-pyrazole-4-sulfonamide] | 250 to 1000 | > 80 | 2.5 to 20 |  |  |
| CCOc1cc2ncc(-c3cc(F)c(OC)c(NS(=O)(=O)c4cnn(C)c4)c3)n2cc1S(=O)(=O)C(C)C [Example 138, N-(5-(7-ethoxy-6-(isopropylsulfonyl)imidazo[1,2-a]pyridin-3-yl)-3-fluoro-2-methoxyphenyl)-1-methyl-1H-pyrazole-4-sulfonamide] | < 50 | > 80 | < 1 |  |  |
| COc1cc2ncc(-c3cc(F)c(OC)c(NS(=O)(=O)c4c(C)nn(C)c4C)c3)n2cc1S(=O)(=O)C(C)(C)C [Example 139, N-(5-(6-(tert-butylsulfonyl)-7-methoxyimidazo[1,2-a]pyridin-3-yl)-3-fluoro-2-methoxyphenyl)-1,3,5-trimethyl-1H-pyrazole-4-sulfonamide] | > 1000 | 55 to 80 | > 20 |  |  |
| COc1cc2ncc(-c3cc(F)c(OC)c(NS(=O)(=O)c4cn[nH]c4)c3)n2cc1S(=O)(=O)C(C)(C)C [Example 140, N-(5-(6-(tert-butylsulfonyl)-7-methoxyimidazo[1,2-a]pyridin-3-yl)-3-fluoro-2-methoxyphenyl)-1H-pyrazole-4-sulfonamide] | < 50 | > 80 | < 1 |  |  |
| COc1cc2ncc(-c3cc(F)c(OC)c(NS(=O)(=O)c4cnn(C)c4)c3)n2cc1S(=O)(=O)C(C)C [Example 262, N-(3-fluoro-5-(6-(isopropylsulfonyl)-7-methoxyimidazo[1,2-a]pyridin-3-yl)-2-methoxyphenyl)-1-methyl-1H-pyrazole-4-sulfonamide] | < 50 | > 80 | < 1 |  |  |
| COc1c(F)cc(-c2cnc3cc(Cl)c(S(=O)(=O)C(C)(C)C)cn23)cc1NS(=O)(=O)c1cnn(C)c1 [Example 263, N-(5-(6-(tert-butylsulfonyl)-7-chloroimidazo[1,2-a]pyridin-3-yl)-3-fluoro-2-methoxyphenyl)-1-methyl-1H-pyrazole-4-sulfonamide] | < 50 | > 80 | < 1 |  |  |
| COc1c(F)cc(-c2cnc3cc(OC[C@H](C)O)c(S(=O)(=O)C(C)(C)C)cn23)cc1NS(=O)(=O)c1cnn(C)c1 [Example 264, (S)-N-(5-(6-(tert-butylsulfonyl)-7-(2-hydroxypropoxy)imidazo [1,2-a]pyridin-3-yl)-3-fluoro-2-methoxyphenyl)-1-methyl-1H-pyrazole-4-sulfonamide] | < 50 | > 80 | < 1 |  |  |
| C[C@H](O)COc1cc2ncc(-c3ccc(N)nc3F)n2cc1S(=O)(=O)C(C)(C)C [Example 267, (S)-1-((3-(6-amino-2-fluoropyridin-3-yl)-6-(tert-butylsulfonyl)imidazo [1,2-a]pyridin-7-yl)oxy)propan-2-ol] | > 1000 | > 80 | 2.5 to 20 |  |  |
| C[C@H](O)COc1cc2ncc(-c3cc4cc[nH]c4nc3F)n2cc1S(=O)(=O)C(C)(C)C [Example 268, (S)-1-((6-(tert-butylsulfonyl)-3-(6-fluoro-1H-pyrrolo[2,3-b]pyridin-5-yl)imidazo[1,2-a]pyridin-7-yl)oxy)propan-2-ol] | < 50 | > 80 | < 1 |  |  |
| COc1c(F)cc(-c2cnc3cc(OC[C@H](C)O)c(S(=O)(=O)C(C)(C)C)cn23)cc1NS(C)(=O)=O [Example 269, (S)-N-(5-(6-(tert-butylsulfonyl)-7-(2-hydroxypropoxy)imidazo[1,2-a]pyridin-3-yl)-3-fluoro-2-methoxyphenyl) methanesulfonamide] | < 50 | 55 to 80 | < 1 |  |  |
| CCS(=O)(=O)Nc1cc(-c2cnc3cc(OC[C@H](C)O)c(S(=O)(=O)C(C)(C)C)cn23)cc(F)c1OC [Example 270, (S)-N-(5-(6-(tert-butylsulfonyl)-7-(2-hydroxypropoxy)imidazo[1,2-a]pyridin-3-yl)-3-fluoro-2-methoxyphenyl) ethanesulfonamide] | < 50 | 55 to 80 | < 1 |  |  |
